Data set [1] has as its target JAK2 (Homo sapiens (Human), UniProt O60674). The data set can be described thus: JAK2 IC50. The class given is biochemical.
The target of data set [2] is T1, BRD4 (Homo sapiens (Human), UniProt O60885). The data set can be described thus: BRD4 DSF thermal shift (ΔTm). The class given is binding. Particulars: for BRD4 DSF (ΔTm): Table 2; for DSF ΔTm: Table 1.
In data set [3] the target is T1, BRD4. The data set is described as follows: BRD4 IC50. The settings on record: Table 2. The class given is binding.
Data set [4] has as its system MM1.S cells. The data set is described as follows: Antiproliferative activity, MM1.S cells. The data set is classed as cell-based. Particulars: Homo sapiens; for GI50: Table 2, read-out: GI50 (MM1S); for IC50: Table 1 comments. The method in brief:
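MM.1S and MV4-11 AML cells were treated with compounds; c-Myc levels served as biomarker after 6-12 hr treatment, and antiproliferative activity was measured after 48-72 hr treatment.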

For data set [5], the system named is UKE1 cells. The data set is described as follows: Growth inhibition GI50, UKE1 cells. The data set is classed as cell-based.
The target of data set [6] is BRD4-1 (Homo sapiens (Human), UniProt O60885). The data set can be described thus: Estimated BRD4-1 IC50. The class given is binding. The settings on record: Table 1.
The test system of data set [7] is c-Myc. Particulars: background, literature; cited from earlier work.
The nature of data set [8]: Human microsome stability. The settings on record: Table 1 comments; meaning of % not stated. The data set is classed as in vitro ADME.
In data set [9] the test system is BaF3-JAK2-VF cells. The data set can be described thus: Growth inhibition GI50, BaF3-JAK2-VF cells. The settings on record: Table 1 comments. The class given is cell-based.
Data set [10] is described as follows: Mouse microsome stability. The class given is in vitro ADME. Particulars: Table 1 comments; meaning of % not stated.
The subject of data set [11] is SET2 cells. The data set is described as follows: Growth inhibition GI50, SET2 cells. Particulars: Homo sapiens, SET-2; Table 1 comments; unit printed only for the neighbouring values in the cell. The data set is classed as cell-based.
Data set [12] relates to BaF3-JAK2-V617F-luciferase cells. The settings on record: for median survival (post-treatment start): treated for 14 days. The procedure: Vehicle control and MA9-060 were administered orally twice daily at the indicated doses to Balb/c mice injected with BaF3-JAK2-V617F-luciferase cells. Mice were imaged for luciferase activity before (Day 0) and after 7 days of treatment (Tx) (FIG. 3A) with the mean total flux from target cells shown in (FIG. 3B).

The subject of data set [13] is UKE1 cells. The data set is described as follows: Drug persistence of UKE1 cells under escalating drug concentration. The class given is cell-based. As to the method:
UKE1 cells were incubated with DMSO, MA9-060, fedratinib, or ruxolitinib at their respective GI20 concentrations. Cell growth was compared to DMSO. Cells were passed back to the same density after counting. Drug concentration was doubled if growth was >90% of DMSO. Fold GI20 is plotted vs time, with drug persistence represented by upward steps of the lines. The final MA9-060, ruxolitinib, and fedratinib concentrations at the end of the experiment were 0.15, 0.6 and 2.4 uM, respectively. Fedratinib-treated cells lost complete viability after about 30 days (after 3 weeks in 2.4 uM).

For data set [14], the system named is PBMCs from a JAK2-V617F+ myelofibrosis patient. The data set can be described thus: Epo-independent erythroid colony (EEC) formation of primary MPN patient cells. The settings on record: colonies after 2 weeks, relative to DMSO, compared with fedratinib and ruxolitinib.
Procedure: (§1) Colony formation was determined after 2 weeks and is indicated relative to no drug (DMSO).
Data set [15] deals with primary human hematopoietic progenitor cells. The data set can be described thus: CFU-G/M colony formation of primary patient cells. The class given is cell-based. Particulars: colonies after 2 weeks.
Procedure: as §1
For data set [16], the system named is MV4-11 AML cells. Particulars: background, literature; read-out: IC50, proliferation of MV4-11 AML cells; cited from earlier work.
[17] abbreviates: UKE1, Table 2, read-out: GI50 (UKE1).

The values that follow come from patent US12391676B2 (H. LEE MOFFITT CANCER CENTER AND RESEARCH INSTITUTE, INC., priority 2018, dated 2025).

“Also recorded” adds a separate entry of the source. Where two headings read alike, the source gives them in different places.

Chain of JAK2 (O60674 whole entry): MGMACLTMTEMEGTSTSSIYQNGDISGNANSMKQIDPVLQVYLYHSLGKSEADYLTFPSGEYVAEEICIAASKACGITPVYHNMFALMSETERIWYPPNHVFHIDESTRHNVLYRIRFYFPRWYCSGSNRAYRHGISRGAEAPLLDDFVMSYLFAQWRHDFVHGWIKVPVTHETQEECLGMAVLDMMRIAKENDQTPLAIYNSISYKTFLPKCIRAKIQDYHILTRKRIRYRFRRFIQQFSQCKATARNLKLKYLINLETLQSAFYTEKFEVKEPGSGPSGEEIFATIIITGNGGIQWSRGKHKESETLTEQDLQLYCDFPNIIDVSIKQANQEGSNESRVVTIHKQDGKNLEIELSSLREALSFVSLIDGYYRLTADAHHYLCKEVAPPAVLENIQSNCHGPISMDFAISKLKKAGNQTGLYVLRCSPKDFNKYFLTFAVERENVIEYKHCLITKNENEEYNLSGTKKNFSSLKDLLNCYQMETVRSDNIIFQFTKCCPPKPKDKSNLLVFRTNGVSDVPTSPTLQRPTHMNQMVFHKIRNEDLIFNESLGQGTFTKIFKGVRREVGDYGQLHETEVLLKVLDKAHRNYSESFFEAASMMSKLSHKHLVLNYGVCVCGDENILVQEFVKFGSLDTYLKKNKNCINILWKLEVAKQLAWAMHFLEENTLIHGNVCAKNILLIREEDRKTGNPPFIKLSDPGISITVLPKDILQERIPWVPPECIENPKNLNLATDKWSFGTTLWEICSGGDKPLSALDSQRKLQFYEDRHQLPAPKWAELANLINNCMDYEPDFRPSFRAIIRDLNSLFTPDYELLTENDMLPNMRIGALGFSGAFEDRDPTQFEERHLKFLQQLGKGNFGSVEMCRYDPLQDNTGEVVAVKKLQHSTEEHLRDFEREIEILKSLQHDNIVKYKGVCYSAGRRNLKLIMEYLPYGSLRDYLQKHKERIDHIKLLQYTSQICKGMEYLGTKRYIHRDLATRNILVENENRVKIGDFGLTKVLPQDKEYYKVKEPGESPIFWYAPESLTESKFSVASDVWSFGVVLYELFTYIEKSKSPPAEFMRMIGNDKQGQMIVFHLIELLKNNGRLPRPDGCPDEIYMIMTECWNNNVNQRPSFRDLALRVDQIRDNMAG

In general, GI50 refers to the concentration giving 50% growth inhibition. For the compound `Cc1cnc(Nc2ccc(C3CCN(C)CC3)cc2)nc1Nc1ccc(Cl)c(NS(=O)(=O)C(C)(C)C)c1` [MA9-050, N-(2-Chloro-5-((5-methyl-2-((4-(1-methylpiperidin-4-yl)phenyl)amino)pyrimidin-4-yl)amino)phenyl)-2-methylpropane-2-sulfonamide], the IC50 is 8.2 nM in data set [1] (Table 2) and 143 nM in data set [3]. For the same compound, the “BRD4 DSF (ΔTm)” value in data set [2] was found to be 12.3 °C. The GI50 in [4] was 110 nM; in data set [5] (setting [17]) it was 310 nM.
As to `Cc1cnc(Nc2ccc(N3CCN(CCCN)CC3)c(F)c2)nc1Nc1cccc(NS(=O)(=O)C(C)(C)C)c1`, the “DSF ΔTm” value in data set [2] came out at 9.4 ± 0.09 °C. For the same compound, in [6], the IC50 is 15.7 nM.
Take `Cc1cnc(Nc2ccc(N3CCN(C)CC3)c(F)c2)cc1Nc1cccc(NS(=O)(=O)C(C)(C)C)c1` [SY3-005, N-(3-((2-((3-Fluoro-4-(4-methylpiperazin-1-yl)phenyl)amino)-5-methylpyridin-4-yl)amino)phenyl)-2-methylpropane-2-sulfonamide]: the IC50 was over 1000 nM in data set [1] (Table 2) and 3960 nM in data set [3]. Also, the “BRD4 DSF (ΔTm)” value in data set [2] came to 6.0 °C. Moreover, the figures for the GI50 in data set [4] and in [5] (setting [17]) were 3310 nM and 5300 nM, respectively.
As for `Cc1cnc(Nc2ccc(N3CCN(C)CC3)cc2)nc1Nc1cccc(S(=O)(=O)NC(C)(C)C)c1` [TG101209], in [7], the “downregulation of c-Myc in MM.1S cells” value is “strong downregulation”.
With `Cc1cnc(Nc2cc(F)cc(N3CCN(C)CC3)c2)nc1Nc1ccc(Cl)c(NS(=O)(=O)C(C)(C)C)c1` [MA9-062, N-(2-Chloro-5-((2-((3-fluoro-5-(4-methylpiperazin-1-yl)phenyl)amino)-5-methylpyrimidin-4-yl)amino)phenyl)-2-methylpropane-2-sulfonamide], the IC50 is 17 nM in [1] (Table 2) and 49 nM in data set [3]. Also, the “BRD4 DSF (ΔTm)” value in data set [2] came out at 11.3 °C. The GI50 in data set [4] turned out to be 160 nM.
As to `Cc1cnc(Nc2ccc(C3CCN(C)CC3)c(F)c2)nc1Nc1ccc(Cl)c(NS(=O)(=O)C(C)(C)C)c1` [drawing 9], in data set [2], the “DSF ΔTm” value turned out to be 14.2 °C. In data set [8], the Human microsome was 42.6%. In addition, the figures for the 50% growth inhibitory concentration (GI50) in [9] and in data set [11] were 28 nM and 54 nM, respectively. Moreover, in [4], the IC50 is 43 nM. The same compound displayed a Mouse microsome in data set [10] of 100%.
For `Cc1cnc(Nc2ccc(N3CCNCC3)c(F)c2)nc1Nc1ccc(Cl)c(NS(=O)(=O)C(C)(C)C)c1`, the IC50 is 2.73 nM in data set [1] (Table 1 comments, n = 2) and 1 nM in [6]. Moreover, the “DSF ΔTm” value in data set [2] was 13 ± 0.05 °C.
As for `Cc1cnc(Nc2cc(F)cc(N3CCN(C)CC3)c2)nc1Nc1cccc(NS(=O)(=O)C(C)(C)C)c1` [SY3-040, N-(3-((2-((3-Fluoro-5-(4-methylpiperazin-1-yl)phenyl)amino)-5-methylpyrimidin-4-yl)amino)phenyl)-2-methylpropane-2-sulfonamide], the IC50 in [1] (Table 2) worked out at 3.1 nM; in [3], 127 nM. Also, in data set [2], the “BRD4 DSF (ΔTm)” value worked out at 11.1 °C. Further, the GI50 in [4] was 220 nM.
As for `Cc1cnc(Nc2ccc(N3CCN(CCCN)CC3)c(F)c2)nc1Nc1ccc(Cl)c(NS(=O)(=O)C(C)(C)C)c1`, the “DSF ΔTm” value in data set [2] was 11 ± 0.02 °C. Further, the IC50 in [6] is 4.6 nM.
Turning to `CC[C@@H]1C(=O)N(C)c2cnc(Nc3ccc(C(=O)NC4CCN(C)CC4)cc3OC)nc2N1C1CCCC1` [BI2536], in [7], the “downregulation of c-Myc in MM.1S cells” value is reported as “strong downregulation”.
Consider `Cc1cnc(Nc2ccc(C3CCN(C)CC3)c(F)c2)nc1Nc1cccc(NS(=O)(=O)C(C)(C)C)c1` [SY3-038, N-(3-((2-((3-Fluoro-4-(1-methylpiperidin-4-yl)phenyl)amino)-5-methylpyrimidin-4-yl)amino)phenyl)-2-methylpropane-2-sulfonamide], for which the IC50 turned out to be 0.7 nM in data set [1] (Table 2) and 87 nM in data set [3]. For the same compound, the “BRD4 DSF (ΔTm)” value in [2] worked out at 12.3 °C. Further, the GI50 in data set [5] (setting [17]) worked out at 64 nM.
On to `Cc1cnc(Nc2ccc(C3CCN(C)CC3)cc2)nc1Nc1ccc(Cl)c(NS(=O)(=O)C(C)(C)C)c1` [drawing 11], for which, in data set [2], the “DSF ΔTm” value worked out at 12.3 °C. The 50% growth inhibitory concentration (GI50) in data set [9] was 99 nM; in data set [11], 240 nM; in [5] (Table 1 comments, read-out: GI50 (UKE1 cells)) it was 340 nM; in [5] (UKE1, Table 1 comments, read-out: GI50 (UKE1 cells)) it was 280 nM. The compound also had an IC50 in data set [4] of 110 nM. The compound further displayed a Mouse microsome in [10] of 81%.
In the case of `Cc1cnc(Nc2ccc(C3CCN(C)CC3)c(F)c2)nc1Nc1ccc(Cl)c(NS(=O)(=O)C(C)(C)C)c1` [MA9-060, N-(2-Chloro-5-((2-((3-fluoro-4-(1-methylpiperidin-4-yl)phenyl)amino)-5-methylpyrimidin-4-yl)amino)phenyl)-2-methylpropane-2-sulfonamide], the IC50 in [1] (Table 2) was 3.3 nM; in [3], 26 nM. For the same compound, the “BRD4 DSF (ΔTm)” value in data set [2] was found to be 14.5 °C. Moreover, the “median survival (post-treatment start)” value is 19 days in data set [12] (10 mg/kg orally twice daily), 26 days in data set [12] (25 mg/kg orally twice daily) and 31 days in [12] (50 mg/kg orally twice daily). Moreover, in data set [12] (25 mg/kg twice daily orally), the toxicity result is given as “No toxicity was detected”. For the same compound, the “inhibition of BaF3-JAK2-V617F-luciferase cells in Balb/c mice” value in data set [12] (oral, twice daily, luciferase imaging) is “dose-dependent inhibition”. Also, in data set [13] (UKE1 cells started at GI20, concentration doubled if growth >90% of DMSO), the “development of drug persistence” value is reported as “do not develop drug persistence; also recorded: could not escape a low concentration”. For the same compound, the “final drug concentration at the end of the experiment” value in [13] (UKE1 cells, drug persistence experiment) was 0.15 µM. The GI50 in [4] turned out to be 43 nM; in data set [5] (setting [17]), 150 nM. Also, the “inhibition of Epo-independent (neoplastic) erythroid colony (EEC) formation” value in data set [14] is “more effective than Fedratinib or Ruxolitinib; also recorded: superior to fedratinib and ruxolitinib”. The “effect on CFU-G/M colony growth” value in data set [15] is recorded as “not affected; also recorded: Little effect”.
Consider `Cc1cnc(Nc2ccc(OCCN3CCCC3)cc2)nc1Nc1cccc(S(=O)(=O)NC(C)(C)C)c1` [TG101348], for which, in data set [16], the IC50 is 79 nM. The “downregulation of c-Myc in MM.1S cells” value in data set [7] was “strong downregulation”.
